According to article PMC8591608, “DNDI-6148: A Novel Benzoxaborole Preclinical Candidate for the Treatment of Visceral Leishmaniasis” (Journal of Medicinal Chemistry, 2021):
pEC50: −log10 of the molar value. Like-named read-outs stand apart in the source and are kept apart here.

Tests used:
[1] = 14-day exploratory toxicology study in rats; conditions: 14-day study
L. infantum = assay: Intramacrophage L. infantum assay; type: cell-based; conditions: Leishmania infantum
Procedure, shortened: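 Ex vivo splenic amastigotes from infected hamsters used to infect primary macrophages (3 × 10^4 cells/4.5 × 10^5 parasites per well) in RPMI-1640 with 5% inactivated FCS. After 5 days' exposure, Giemsa-stained burdens counted microscopically versus untreated infected (100%) and uninfected (0%) controls; EC50 from 8-point 2-fold dilutions.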

PMM cytotoxicity assay = type: cell-based; conditions: mouse, primary peritoneal mouse macrophages (PMM)
Procedure, shortened: (§1)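 PMM (harvested 2 days after 2% potato starch peritoneal stimulation) or MRC5SV2 human lung fibroblasts at 3 × 10^4 cells/mL were exposed to compound for three days at 37 °C, 5% CO2. Viability was read by resazurin fluorescence (λex 550, λem 590 nm) after 4 h, as % growth reduction vs untreated controls.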

MRC5 cytotoxicity assay = type: cell-based; conditions: human, MRC5SV2 cells (human embryonic lung fibroblasts); Table 5; geometric mean of at least two independent tests
Procedure, shortened: as §1

[2] = Hamster oral pharmacokinetic study; type: in vivo, golden Syrian hamsters; conditions: female, golden Syrian, plasma, single p.o. dose 50 mg/kg, read-out: AUC0–24 after single p.o. dose of 50 mg/kg
Experimental: […] The K2-EDTA anticoagulant was added to blood samples collected from 0.25 to 36 h, which were processed to plasma and stabilized with phosphoric acid (1% final) before analysis by LC-MS/MS. PK parameters were calculated using WinNonlin software (version 6.3).

[3] = Liver microsome stability, hamster; type: in vitro ADME; conditions: golden (Syrian), hamster liver microsomes, pH 7.4, Table 5, read-out: HamLM Clint
Procedure, shortened: (§2)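 Compounds at 1 μM incubated at 37 °C with liver microsomes (Balb/c mouse, golden Syrian hamster, Beagle dog, human) plus NADPH regenerating system in 100 mM phosphate buffer pH 7.4, 0.4 or 0.8 mg/mL protein. Samples taken from 0 up to 60, 90 or 120 min, quenched in cold methanol and analysed by LC-MS/MS.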

[4] = Liver microsome stability, human; type: in vitro ADME; conditions: for microsomal CLint at 1 μM: human liver microsomes, pH 7.4, Table 5, read-out: HLM Clint
Procedure, shortened: as §2

L. donovani [5] = assay: L. donovani mouse model of VL; type: in vivo
Experimental: Female BALB/c mice were infected with 2 × 10^7L. donovani amastigotes/0.2 mL i.v. harvested from the spleen of an infected donor RAG1B6 mouse (LSHTM). After 7 days, the mice were treated with miltefosine or DNDI-6148 for 5 consecutive days. Five days after the final dose, mice were humanely killed, liver and spleens were dissected and weighed, and impression smears were made for the calculation of parasite burden (Stauber equation).[25]

L. donovani [6] = assay: Intramacrophage L. donovani assay; type: cell-based; conditions: Leishmania donovani
Experimental: L. infantum (MHOM/MA/67/ITMAP263) and L. donovani (MHOM/ET/67/L82) were maintained in the golden (Syrian) hamster (Mesocricetus auratus). Ex vivo amastigotes were collected from the spleen of an infected donor hamster using two centrifugation purification steps: 230g for 10 min, keeping the supernatant layer, and 4100g for 30 min, keeping the pellet. The spleen parasite burden was assessed using the Stauber technique.[25] For in vitro assays, the inoculum was prepared in RPMI-1640 medium, supplemented with 200 mM L-glutamine, 16.5 mM NaHCO3, and 5% inactivated fetal calf serum. For the in vivo model, an infection inoculum containing 2 × 10^7 amastigotes/100 μL was prepared in phosphate-buffered saline (PBS).
The assay was performed in sterile 96-well microtiter plates, each well containing 10 μL of the compound dilution and 190 μL of the PMM/amastigote inoculum (3 × 10^4 cells/4.5 × 10^5 parasites per well). Parasite multiplication was compared to untreated infected controls (100% growth) and uninfected controls (0% growth). After five-day incubation, total parasite burdens were microscopically assessed after staining the cells with a 10% Giemsa solution. The results were expressed as a percentage reduction in parasite burden compared to untreated control wells. EC50 values were determined using an extended dose range (2-fold compound dilutions, 8-point concentration curve). Miltefosine was used as the reference drug.[26] For selected compounds, this assay format was also run using the L. donovani inoculum.

[7] = Table 5, geometric mean of at least two independent tests, read-out: intramacrophage L. infantum amastigote EC50
[8] = Table 2, geometric mean of at least three independent assays
[9] = Table 5, geometric mean of at least two independent tests
[10] = Table 6, geometric mean of at least two independent tests

SMILES | no adverse effect limit ([1]; male and female Sprague-Dawley rats) [mg/kg/day] | pEC50 (L. infantum; Table 2, geometric mean of at least three independent assays, read-out: intramacrophage L. infantum EC50) | pEC50 (L. infantum; [7]) | EC50 at 3 days (PMM cytotoxicity assay; [8]) [µM] | CC50 at 3 days (PMM cytotoxicity assay; [9]) [µM] | CC50 at 3 days (MRC5 cytotoxicity assay) [µM] | AUC(0-t) [2] [ng·h/mL] | microsomal CLint at 1 μM [3] [µL/min/mg] | microsome Clint ([4]; Table 10) [μL/min/mg protein] | microsomal CLint at 1 μM [4] [µL/min/mg] | reduction in liver parasite burden following 5 days of p.o. dosing BID, L. donovani (L. donovani [5]; 25 mg/kg BID) [%] | reduction in liver parasite burden following 5 days of p.o. dosing BID, L. donovani (L. donovani [5]; 50 mg/kg BID) [%] | pEC50 (L. donovani [6]; [8]) | toxicity finding ([1]; rats, daily dosing of 25 mg/kg) | CC50 at 72 h (PMM cytotoxicity assay; [9]) [µM] | CC50 at 3 days (PMM cytotoxicity assay; [10]) [µM] | CC50 at 72 h (MRC5 cytotoxicity assay) [µM] | microsomal CLint at 2 h, 1 µM [3] [µL/min/mg] | pEC50 (L. donovani [6]; [10])
Cc1c(C(=O)Nc2ccc3c(c2)B(O)OC3)nnn1-c1ccccn1 [Compound 23, N-(1-Hydroxy-1,3-dihydrobenzo[c][1,2]oxaborol-6-yl)-5-methyl-1-(pyridin-2-yl)-1H-1,2,3-triazole-4-carboxamide] | 50 | 5.74 | 5.74 | > 64 | > 64 | > 64 | 120000 | < 11.9 | <11.9 | < 11.9 | 97.1 | 99.7 | 5.85 | – | – | – | – | – | –
Cc1c(-c2ccccn2)coc1C(=O)Nc1ccc2c(c1)B(O)OC2 [Compound 28, N-(1-Hydroxy-1,3-dihydrobenzo[c][1,2]oxaborol-6-yl)-3-methyl-4-(pyridin-2-yl)furan-2-carboxamide] | – | – | 6.30 | – | – | – | 21000 | – | – | < 11.9 | 97.5 | 99.5 | – | significant multiorgan toxicity | 49 | 54 | 18 | 40 | 6.40
